This passage reports IC50 results from patent US20260078120A1, “SUBSTITUTED PYRIDOPYRIMIDINONES” (MIRATI THERAPEUTICS, INC., priority 2022, published 2026).

Where two headings read alike, the source gives them in different places.

Test [1] relates to T47D (PI3Kα H1047R mutant) cells. Kind of test: CellTiter-Glo 2.0 luminescent cell viability assay, 72 hours, T47D cells. Type of test: cell-based. The note with it: T47D (PI3Kα H1047R mutant) cells, CellTiter-Glo, approximately 72 hours, read-out: T47D (H1047R mutant) Viability IC50. A digest of the protocol:
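Cells seeded at 1000 per well overnight were dosed with a 10-concentration, 1:4 series starting at 10 µM and incubated ~72 h at 37° C. Viability was read by CellTiter-Glo 2.0 luminescence after 30 min at room temperature. IC50 came from four-parameter fits of percent vehicle control.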
(Cellular ATP, detected with luciferase, serves as a proxy for viable cell number.)

Test [2] relates to SKBR3 (PI3Kα wild type) cells. Kind of test: CellTiter-Glo 2.0 luminescent cell viability assay, 72 hours, SKBR3 cells. In kind it is cell-based. The conditions noted are these: Homo sapiens, SK-BR-3, 72 h, SKBR3 (PI3Kα wild type) cells, CellTiter-Glo, approximately 72 hours; read-out: SKBR3 (WT) Viability IC50. A digest of the protocol:
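Viability measured via CTG luminescence following roughly 72 hours of compound exposure at 37° C. Dosing used a 10 um starting concentration diluted 1:4 over 10 points; percent-of-vehicle data fitted with a variable-slope four-parameter model for IC50.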

The term IC50 denotes the concentration that inhibits the measured activity by half. On to `CNC(=O)c1ccc(N2CCN(c3nc4c([C@@H](C)Nc5ccccc5C(=O)O)cc(C)cn4c(=O)c3C)CC2)cc1` [Example 11-249, (R)-2-((1-(3,7-dimethyl-2-(4-(4-(methylcarbamoyl)phenyl)piperazin-1-yl)-4-oxo-4H-pyrido[1,2-a]pyrimidin-9-yl)ethyl)amino)benzoic acid], for which the IC50 in test [1] (Homo sapiens, T47D, 72 h) is 0.118 µM; in test [2], over 10 µM.

For the compound `Cc1cc([C@@H](C)Nc2ccccc2C(=O)O)c2nc(N3CCN(c4ccc(C(N)=O)cc4)CC3)c(C)c(=O)n2c1` [Example 11-250, (R)-2-((1-(2-(4-(4-carbamoylphenyl)piperazin-1-yl)-3,7-dimethyl-4-oxo-4H-pyrido[1,2-a]pyrimidin-9-yl)ethyl)amino)benzoic acid], the IC50 in test [1] (Homo sapiens, T47D, 72 h) is 0.482 µM; in test [2], over 10 µM.

With `Cc1cc([C@@H](C)Nc2ccccc2C(=O)O)c2nc(N3CCN(c4cccc5c(C#N)nn(C)c45)CC3)c(C)c(=O)n2c1` [Example 11-251, (R)-2-((1-(2-(4-(3-cyano-1-methyl-1H-indazol-7-yl)piperazin-1-yl)-3,7-dimethyl-4-oxo-4H-pyrido[1,2-a]pyrimidin-9-yl)ethyl)amino)benzoic acid], the IC50 in test [1] (Homo sapiens, T47D, 72 h) was 0.263 µM; in test [2], over 10 µM.

In the case of `Cc1cc([C@@H](C)Nc2ccccc2C(=O)O)c2nc(N3CCC(c4cc[nH]n4)CC3)c(C)c(=O)n2c1` [Example 11-252, (R)-2-((1-(2-(4-(1H-pyrazol-3-yl)piperidin-1-yl)-3,7-dimethyl-4-oxo-4H-pyrido[1,2-a]pyrimidin-9-yl)ethyl)amino)benzoic acid], the IC50 in test [1] (Homo sapiens, T47D, 72 h) is 0.114 µM; in test [2], over 10 µM.

For `Cc1cc([C@@H](C)Nc2ccccc2C(=O)O)c2nc(C#Cc3ccc(C#N)cc3)c(C)c(=O)n2c1` [Example 11-253, (R)-2-((1-(2-((4-cyanophenyl)ethynyl)-3,7-dimethyl-4-oxo-4H-pyrido[1,2-a]pyrimidin-9-yl)ethyl)amino)benzoic acid], the IC50 in test [1] (Homo sapiens, T47D, 72 h) is 0.492 µM; in test [2], over 10 µM.

Consider `Cc1cc([C@@H](C)Nc2ccccc2C(=O)O)c2nc(N3CCN(c4ccc(C#N)c5cc(O)ccc45)CC3)c(C)c(=O)n2c1` [Example 11-254, (R)-2-((1-(2-(4-(4-cyano-6-hydroxynaphthalen-1-yl)piperazin-1-yl)-3,7-dimethyl-4-oxo-4H-pyrido[1,2-a]pyrimidin-9-yl)ethyl)amino)benzoic acid], for which the IC50 is 0.124 µM in test [1] (Homo sapiens, T47D, 72 h) and over 10 µM in test [2].

With `Cc1cc([C@@H](C)Nc2ccccc2C(=O)O)c2nc(N3CCN(c4ccc(C#N)c5ccc(O)cc45)CC3)c(C)c(=O)n2c1` [Example 11-255, (R)-2-((1-(2-(4-(4-cyano-7-hydroxynaphthalen-1-yl)piperazin-1-yl)-3,7-dimethyl-4-oxo-4H-pyrido[1,2-a]pyrimidin-9-yl)ethyl)amino)benzoic acid], the IC50 is 0.28 µM in test [1] (Homo sapiens, T47D, 72 h) and over 10 µM in test [2].

Regarding `CC(=O)N1CCC(c2nc3c([C@@H](C)Nc4ccccc4C(=O)O)cc(C)cn3c(=O)c2C#N)CC1` [Example 11-256, (R)-2-((1-(2-(1-acetylpiperidin-4-yl)-3-cyano-7-methyl-4-oxo-4H-pyrido[1,2-a]pyrimidin-9-yl)ethyl)amino)benzoic acid], the IC50 in test [1] (Homo sapiens, T47D, 72 h) was 0.511 µM; in test [2], over 10 µM.

`Cc1cc(C(C)Nc2ccccc2C(=O)O)c2nc(N3CCN(c4ccc(CN)cc4)CC3)cc(=O)n2c1` (stereo not shown) [Example 11-257, 2-((1-(2-(4-(4-(aminomethyl)phenyl)piperazin-1-yl)-7-methyl-4-oxo-4H-pyrido[1,2-a]pyrimidin-9-yl)ethyl)amino)benzoic acid]: the IC50 in test [1] (Homo sapiens, T47D, 72 h) was 9.52 µM; in test [2] it was over 10 µM.

Consider `Cc1cc([C@@H](C)Nc2ccccc2C(=O)O)c2nc(N3CCN(c4ncc(C#N)cn4)CC3)c(C)c(=O)n2c1` [Example 11-258, (R)-2-((1-(2-(4-(5-cyanopyrimidin-2-yl)piperazin-1-yl)-3,7-dimethyl-4-oxo-4H-pyrido[1,2-a]pyrimidin-9-yl)ethyl)amino)benzoic acid], for which the IC50 was 0.119 µM in test [1] (Homo sapiens, T47D, 72 h) and over 10 µM in test [2].

As to `Cc1cc([C@@H](C)Nc2ccccc2C(=O)O)c2nc(N3CCN(c4ccccc4C#N)CC3)c(C#N)c(=O)n2c1` [Example 11-260, (R)-2-((1-(3-cyano-2-(4-(2-cyanophenyl)piperazin-1-yl)-7-methyl-4-oxo-4H-pyrido[1,2-a]pyrimidin-9-yl)ethyl)amino)benzoic acid], the IC50 in test [1] (Homo sapiens, T47D, 72 h) is 0.368 µM; in test [2], over 10 µM.

For the compound `Cc1cc([C@@H](C)Nc2ccccc2C(=O)O)c2nc(N3CCN(C(=O)c4ccccc4)CC3)c(C#N)c(=O)n2c1` [Example 11-263, (R)-2-((1-(2-(4-benzoylpiperazin-1-yl)-3-cyano-7-methyl-4-oxo-4H-pyrido[1,2-a]pyrimidin-9-yl)ethyl)amino)benzoic acid], the IC50 in test [1] (Homo sapiens, T47D, 72 h) is 1.29 µM; in test [2], over 10 µM.

With `Cc1cc([C@@H](C)Nc2ccccc2C(=O)O)c2nc(N3CCN(c4cnn(C)c4)CC3)c(C#N)c(=O)n2c1` [Example 11-264, (R)-2-((1-(3-cyano-7-methyl-2-(4-(1-methyl-1H-pyrazol-4-yl)piperazin-1-yl)-4-oxo-4H-pyrido[1,2-a]pyrimidin-9-yl)ethyl)amino)benzoic acid], the IC50 in test [1] (Homo sapiens, T47D, 72 h) is 1.18 µM; in test [2] it was over 10 µM.

Take `Cc1cc([C@@H](C)Nc2ccccc2C(=O)O)c2nc(N3CCN(c4cnn(C)c4)CC3)c(C)c(=O)n2c1` [Example 11-265, (R)-2-((1-(3,7-dimethyl-2-(4-(1-methyl-1H-pyrazol-4-yl)piperazin-1-yl)-4-oxo-4H-pyrido[1,2-a]pyrimidin-9-yl)ethyl)amino)benzoic acid]: the IC50 in test [1] (Homo sapiens, T47D, 72 h) was 0.248 µM; in test [2] it was over 10 µM.

Consider `Cc1cc([C@@H](C)Nc2ccccc2C(=O)O)c2nc(N3CCN(c4ccccc4C)CC3)c(C)c(=O)n2c1` [Example 11-267, (R)-2-((1-(3,7-dimethyl-4-oxo-2-(4-(o-tolyl)piperazin-1-yl)-4H-pyrido[1,2-a]pyrimidin-9-yl)ethyl)amino)benzoic acid], for which the half-inhibitory concentration (IC50) in test [1] (Homo sapiens, T47D, 72 h) is 0.236 µM; in test [2], over 10 µM.

On to `Cc1cc([C@@H](C)Nc2ccccc2C(=O)O)c2nc(N3CCN(c4ccccc4)CC3C)c(C)c(=O)n2c1` (stereo partly drawn) [Example 11-268, 2-(((1R)-1-(3,7-dimethyl-2-(2-methyl-4-phenylpiperazin-1-yl)-4-oxo-4H-pyrido[1,2-a]pyrimidin-9-yl)ethyl)amino)benzoic acid], for which the IC50 in test [1] (Homo sapiens, T47D, 72 h) was 0.362 µM; in test [2], over 10 µM.

On to `Cc1cc([C@@H](C)Nc2ccccc2C(=O)O)c2nc(N3CCN(c4ccc(C#N)cc4)CC3C)c(C)c(=O)n2c1` (stereo partly drawn) [Example 11-269, 2-(((1R)-1-(2-(4-(4-cyanophenyl)-2-methylpiperazin-1-yl)-3,7-dimethyl-4-oxo-4H-pyrido[1,2-a]pyrimidin-9-yl)ethyl)amino)benzoic acid], for which the figures for the IC50 in test [1] and in test [2] were 0.11 µM and over 10 µM, respectively.

Take `Cc1cc([C@@H](C)Nc2ccccc2C(=O)O)c2nc(N3CCN(c4ccc(C#N)cc4)[C@H](C)C3)c(C#N)c(=O)n2c1` [Example 11-270, 2-(((R)-1-(3-cyano-2-((R)-4-(4-cyanophenyl)-3-methylpiperazin-1-yl)-7-methyl-4-oxo-4H-pyrido[1,2-a]pyrimidin-9-yl)ethyl)amino)benzoic acid]: the IC50 in test [1] (Homo sapiens, T47D, 72 h) is 0.227 µM; in test [2] it was over 10 µM.

For `Cc1cc([C@@H](C)Nc2ccccc2C(=O)O)c2nc(N3CCN(c4ccc(C#N)cc4)C(C)C3)c(C#N)c(=O)n2c1` (stereo partly drawn) [Example 11-271, 2-(((1R)-1-(3-cyano-2-(4-(4-cyanophenyl)-3-methylpiperazin-1-yl)-7-methyl-4-oxo-4H-pyrido[1,2-a]pyrimidin-9-yl)ethyl)amino)benzoic acid], the IC50 in test [1] (Homo sapiens, T47D, 72 h) is 0.118 µM; in test [2], 7.1 µM.

Regarding `Cc1cc([C@@H](C)Nc2ccccc2C(=O)O)c2nc(N3CCN(c4ccc(C#N)cc4)CC3)c(C#N)c(=O)n2c1` [Example 11-272, (R)-2-((1-(3-cyano-2-(4-(4-cyanophenyl)piperazin-1-yl)-7-methyl-4-oxo-4H-pyrido[1,2-a]pyrimidin-9-yl)ethyl)amino)benzoic acid], the IC50 in test [1] (Homo sapiens, T47D, 72 h) was 0.141 µM; in test [2], over 10 µM.

`Cc1cc([C@@H](C)Nc2ccccc2C(=O)O)c2nc(N3CCN(c4ccccc4)CC3)c(C)c(=O)n2c1` [Example 11-273, (R)-2-((1-(3,7-dimethyl-4-oxo-2-(4-phenylpiperazin-1-yl)-4H-pyrido[1,2-a]pyrimidin-9-yl)ethyl)amino)benzoic acid]: the 50% inhibitory concentration (IC50) in test [1] (Homo sapiens, T47D, 72 h) came out at 3.1 µM; in test [2], 7.39 µM.

For the compound `Cc1cc([C@@H](C)Nc2ccncc2C(=O)O)c2nc(N3Cc4ccccc4C3)c(C#N)c(=O)n2c1` [Example 11-274, (R)-4-((1-(3-cyano-2-(isoindolin-2-yl)-7-methyl-4-oxo-4H-pyrido[1,2-a]pyrimidin-9-yl)ethyl)amino)nicotinic acid], the IC50 was over 10 µM in test [1] (Homo sapiens, T47D, 72 h) and over 10 µM in test [2].

`Cc1cc([C@@H](C)Nc2ccncc2C(=O)O)c2nc(N3Cc4ccccc4C3)c(C)c(=O)n2c1` [Example 11-275, (R)-4-((1-(2-(isoindolin-2-yl)-3,7-dimethyl-4-oxo-4H-pyrido[1,2-a]pyrimidin-9-yl)ethyl)amino)nicotinic acid]: the half-inhibitory concentration (IC50) is over 10 µM in test [1] (Homo sapiens, T47D, 72 h) and over 10 µM in test [2].
